Laboratory results from ChEMBL document CHEMBL3232789, “Design and synthesis of novel 2H-chromen-2-one derivatives bearing 1,2,3-triazole moiety as lead antimicrobials” (2014).

What follows are compounds tested on Bacillus subtilis (assay: Antibacterial activity against Bacillus subtilis MTCC 441 assessed as growth inhibition at 100 ug/mL after 14 hrs by cup plate method). Conditions: MTCC 441, 14 h, read-out: DIZ.
Format: functional

Compound	zone of inhibition at 100 µg/mL
Cc1cc(=O)oc2cc(OCCCCCCn3cc(CN4CCCC4)nn3)ccc12	14 mm
Cc1cc(=O)oc2cc(OCCCCCCn3cc(CN4CCCCC4)nn3)ccc12	12.6 mm
Cc1cc(=O)oc2cc(OCCCCCCn3cc(CN4CCOCC4)nn3)ccc12	15.4 mm
Cc1cc(=O)oc2cc(OCCCCCCn3cc(CN4CCN(C)CC4)nn3)ccc12	12.4 mm
CC(=O)N1CCN(Cc2cn(CCCCCCOc3ccc4c(C)cc(=O)oc4c3)nn2)CC1	12.4 mm
Cc1cc(=O)oc2cc(OCCCCCCn3cc(CN4CCN(Cc5ccc6c(c5)OCO6)CC4)nn3)ccc12	12.5 mm
Cc1cc(=O)oc2cc(OCCCCn3cc(CN4C(=O)c5ccccc5C4=O)nn3)ccc12	12.9 mm

Each compound was assayed on Aspergillus niger (assay: Antifungal activity against Aspergillus niger MTCC 282 assessed as growth inhibition at 100 ug/mL after 30 hrs by cup plate method). Conditions: MTCC 282, 30 h, read-out: DIZ.
Format: functional

Compound	zone of inhibition at 100 µg/mL
Cc1cc(=O)oc2cc(OCCCCCCn3cc(CN4CCCC4)nn3)ccc12	12.5 mm
Cc1cc(=O)oc2cc(OCCCCCCn3cc(CN4CCCCC4)nn3)ccc12	11.9 mm
Cc1cc(=O)oc2cc(OCCCCCCn3cc(CN4CCOCC4)nn3)ccc12	12.9 mm
Cc1cc(=O)oc2cc(OCCCCCCn3cc(CN4CCN(C)CC4)nn3)ccc12	14 mm
CC(=O)N1CCN(Cc2cn(CCCCCCOc3ccc4c(C)cc(=O)oc4c3)nn2)CC1	12.7 mm
Cc1cc(=O)oc2cc(OCCCCCCn3cc(CN4CCN(Cc5ccc6c(c5)OCO6)CC4)nn3)ccc12	11.9 mm
Cc1cc(=O)oc2cc(OCCCCn3cc(CN4C(=O)c5ccccc5C4=O)nn3)ccc12	12.8 mm

These compounds were tested on Escherichia coli (assay: Antibacterial activity against Escherichia coli MTCC 443 assessed as growth inhibition at 100 ug/mL after 14 hrs by cup plate method). Conditions: MTCC 443, 14 h, read-out: DIZ.
Format: functional

Compound	zone of inhibition at 100 µg/mL
Cc1cc(=O)oc2cc(OCCCCCCn3cc(CN4CCCC4)nn3)ccc12	11.7 mm
Cc1cc(=O)oc2cc(OCCCCCCn3cc(CN4CCCCC4)nn3)ccc12	12.8 mm
Cc1cc(=O)oc2cc(OCCCCCCn3cc(CN4CCOCC4)nn3)ccc12	14.4 mm
Cc1cc(=O)oc2cc(OCCCCCCn3cc(CN4CCN(C)CC4)nn3)ccc12	14.7 mm
CC(=O)N1CCN(Cc2cn(CCCCCCOc3ccc4c(C)cc(=O)oc4c3)nn2)CC1	13.3 mm
Cc1cc(=O)oc2cc(OCCCCCCn3cc(CN4CCN(Cc5ccc6c(c5)OCO6)CC4)nn3)ccc12	12.3 mm
Cc1cc(=O)oc2cc(OCCCCn3cc(CN4C(=O)c5ccccc5C4=O)nn3)ccc12	12.7 mm

Each compound was assayed on Candida albicans (assay: Antifungal activity against Candida albicans MTCC 227 assessed as growth inhibition at 100 ug/mL after 30 hrs by cup plate method). Conditions: MTCC 227, 30 h, read-out: DIZ.
Format: functional

Compound	zone of inhibition at 100 µg/mL
Cc1cc(=O)oc2cc(OCCCCCCn3cc(CN4CCCC4)nn3)ccc12	14.4 mm
Cc1cc(=O)oc2cc(OCCCCCCn3cc(CN4CCCCC4)nn3)ccc12	14 mm
Cc1cc(=O)oc2cc(OCCCCCCn3cc(CN4CCOCC4)nn3)ccc12	13.5 mm
Cc1cc(=O)oc2cc(OCCCCCCn3cc(CN4CCN(C)CC4)nn3)ccc12	13.6 mm
CC(=O)N1CCN(Cc2cn(CCCCCCOc3ccc4c(C)cc(=O)oc4c3)nn2)CC1	14.7 mm
Cc1cc(=O)oc2cc(OCCCCCCn3cc(CN4CCN(Cc5ccc6c(c5)OCO6)CC4)nn3)ccc12	16.8 mm
Cc1cc(=O)oc2cc(OCCCCn3cc(CN4C(=O)c5ccccc5C4=O)nn3)ccc12	16.5 mm

The compounds below were run on Klebsiella pneumoniae (assay: Antibacterial activity against Klebsiella pneumoniae MTCC 432 assessed as growth inhibition at 100 ug/mL after 14 hrs by cup plate method). Conditions: MTCC 432, 14 h, read-out: DIZ.
Format: functional

Compound	zone of inhibition at 100 µg/mL
Cc1cc(=O)oc2cc(OCCCCCCn3cc(CN4CCCC4)nn3)ccc12	14.4 mm
Cc1cc(=O)oc2cc(OCCCCCCn3cc(CN4CCCCC4)nn3)ccc12	12.9 mm
Cc1cc(=O)oc2cc(OCCCCCCn3cc(CN4CCOCC4)nn3)ccc12	14.6 mm
Cc1cc(=O)oc2cc(OCCCCCCn3cc(CN4CCN(C)CC4)nn3)ccc12	12.4 mm
CC(=O)N1CCN(Cc2cn(CCCCCCOc3ccc4c(C)cc(=O)oc4c3)nn2)CC1	14.4 mm
Cc1cc(=O)oc2cc(OCCCCCCn3cc(CN4CCN(Cc5ccc6c(c5)OCO6)CC4)nn3)ccc12	13.9 mm
Cc1cc(=O)oc2cc(OCCCCn3cc(CN4C(=O)c5ccccc5C4=O)nn3)ccc12	12.4 mm

The compounds below were run on Staphylococcus aureus (assay: Antibacterial activity against Staphylococcus aureus MTCC 096 assessed as growth inhibition at 100 ug/mL after 14 hrs by cup plate method). Conditions: MTCC 096, 14 h, read-out: DIZ.
Format: functional

Compound	zone of inhibition at 100 µg/mL
Cc1cc(=O)oc2cc(OCCCCCCn3cc(CN4CCCC4)nn3)ccc12	13.6 mm
Cc1cc(=O)oc2cc(OCCCCCCn3cc(CN4CCCCC4)nn3)ccc12	12.9 mm
Cc1cc(=O)oc2cc(OCCCCCCn3cc(CN4CCOCC4)nn3)ccc12	11.7 mm
Cc1cc(=O)oc2cc(OCCCCCCn3cc(CN4CCN(C)CC4)nn3)ccc12	12.5 mm
CC(=O)N1CCN(Cc2cn(CCCCCCOc3ccc4c(C)cc(=O)oc4c3)nn2)CC1	14.4 mm
Cc1cc(=O)oc2cc(OCCCCCCn3cc(CN4CCN(Cc5ccc6c(c5)OCO6)CC4)nn3)ccc12	14 mm
Cc1cc(=O)oc2cc(OCCCCn3cc(CN4C(=O)c5ccccc5C4=O)nn3)ccc12	12.8 mm

Each compound was assayed on Pseudomonas aeruginosa (assay: Antibacterial activity against Pseudomonas aeruginosa MTCC 424 assessed as growth inhibition at 100 ug/mL after 14 hrs by cup plate method). Conditions: MTCC 424, 14 h, read-out: DIZ.
Format: functional

Compound	zone of inhibition at 100 µg/mL
Cc1cc(=O)oc2cc(OCCCCCCn3cc(CN4CCCC4)nn3)ccc12	14.8 mm
Cc1cc(=O)oc2cc(OCCCCCCn3cc(CN4CCCCC4)nn3)ccc12	13.2 mm
Cc1cc(=O)oc2cc(OCCCCCCn3cc(CN4CCOCC4)nn3)ccc12	14.5 mm
Cc1cc(=O)oc2cc(OCCCCCCn3cc(CN4CCN(C)CC4)nn3)ccc12	13.9 mm
CC(=O)N1CCN(Cc2cn(CCCCCCOc3ccc4c(C)cc(=O)oc4c3)nn2)CC1	17.1 mm
Cc1cc(=O)oc2cc(OCCCCCCn3cc(CN4CCN(Cc5ccc6c(c5)OCO6)CC4)nn3)ccc12	14.9 mm
Cc1cc(=O)oc2cc(OCCCCn3cc(CN4C(=O)c5ccccc5C4=O)nn3)ccc12	13.9 mm

The compounds below were run on Staphylococcus epidermidis (assay: Antibacterial activity against Staphylococcus epidermidis MTCC 435 assessed as growth inhibition at 100 ug/mL after 14 hrs by cup plate method). Conditions: MTCC 435, 14 h, read-out: DIZ.
Format: functional

Compound	zone of inhibition at 100 µg/mL
Cc1cc(=O)oc2cc(OCCCCCCn3cc(CN4CCCC4)nn3)ccc12	14 mm
Cc1cc(=O)oc2cc(OCCCCCCn3cc(CN4CCCCC4)nn3)ccc12	13.1 mm
Cc1cc(=O)oc2cc(OCCCCCCn3cc(CN4CCOCC4)nn3)ccc12	13.4 mm
Cc1cc(=O)oc2cc(OCCCCCCn3cc(CN4CCN(C)CC4)nn3)ccc12	14.6 mm
CC(=O)N1CCN(Cc2cn(CCCCCCOc3ccc4c(C)cc(=O)oc4c3)nn2)CC1	14.8 mm
Cc1cc(=O)oc2cc(OCCCCCCn3cc(CN4CCN(Cc5ccc6c(c5)OCO6)CC4)nn3)ccc12	11.9 mm
Cc1cc(=O)oc2cc(OCCCCn3cc(CN4C(=O)c5ccccc5C4=O)nn3)ccc12	12.4 mm

Each compound was assayed on Salmonella typhi (assay: Antibacterial activity against Salmonella typhi MTCC 733 assessed as growth inhibition at 100 ug/mL after 14 hrs by cup plate method). Conditions: Salmonella enterica, MTCC 733, 14 h; read-out: DIZ.
Format: functional, Salmonella enterica subsp. enterica serovar Typhi

Compound	zone of inhibition at 100 µg/mL
Cc1cc(=O)oc2cc(OCCCCCCn3cc(CN4CCCC4)nn3)ccc12	15.2 mm
Cc1cc(=O)oc2cc(OCCCCCCn3cc(CN4CCCCC4)nn3)ccc12	14.4 mm
Cc1cc(=O)oc2cc(OCCCCCCn3cc(CN4CCOCC4)nn3)ccc12	13.5 mm
Cc1cc(=O)oc2cc(OCCCCCCn3cc(CN4CCN(C)CC4)nn3)ccc12	13.1 mm
CC(=O)N1CCN(Cc2cn(CCCCCCOc3ccc4c(C)cc(=O)oc4c3)nn2)CC1	12.1 mm
Cc1cc(=O)oc2cc(OCCCCCCn3cc(CN4CCN(Cc5ccc6c(c5)OCO6)CC4)nn3)ccc12	14.1 mm
Cc1cc(=O)oc2cc(OCCCCn3cc(CN4C(=O)c5ccccc5C4=O)nn3)ccc12	12.2 mm

Each compound was assayed on Aspergillus fumigatus (assay: Antifungal activity against Aspergillus fumigatus MTCC 343 assessed as growth inhibition at 100 ug/mL after 30 hrs by cup plate method). Conditions: MTCC 343, 30 h, read-out: DIZ.
Format: functional

Compound	zone of inhibition at 100 µg/mL
Cc1cc(=O)oc2cc(OCCCCCCn3cc(CN4CCCC4)nn3)ccc12	18.5 mm
Cc1cc(=O)oc2cc(OCCCCCCn3cc(CN4CCCCC4)nn3)ccc12	18.8 mm
Cc1cc(=O)oc2cc(OCCCCCCn3cc(CN4CCOCC4)nn3)ccc12	16.9 mm
Cc1cc(=O)oc2cc(OCCCCCCn3cc(CN4CCN(C)CC4)nn3)ccc12	18.4 mm
CC(=O)N1CCN(Cc2cn(CCCCCCOc3ccc4c(C)cc(=O)oc4c3)nn2)CC1	18.2 mm
Cc1cc(=O)oc2cc(OCCCCCCn3cc(CN4CCN(Cc5ccc6c(c5)OCO6)CC4)nn3)ccc12	20.6 mm
Cc1cc(=O)oc2cc(OCCCCn3cc(CN4C(=O)c5ccccc5C4=O)nn3)ccc12	19 mm

These compounds were tested on Aspergillus flavus (assay: Antifungal activity against Aspergillus flavus MTCC 277 assessed as growth inhibition at 100 ug/mL after 30 hrs by cup plate method). Conditions: MTCC 277, 30 h, read-out: DIZ.
Format: functional

Compound	zone of inhibition at 100 µg/mL
Cc1cc(=O)oc2cc(OCCCCCCn3cc(CN4CCCC4)nn3)ccc12	14.7 mm
Cc1cc(=O)oc2cc(OCCCCCCn3cc(CN4CCCCC4)nn3)ccc12	12.5 mm
Cc1cc(=O)oc2cc(OCCCCCCn3cc(CN4CCOCC4)nn3)ccc12	16.8 mm
Cc1cc(=O)oc2cc(OCCCCCCn3cc(CN4CCN(C)CC4)nn3)ccc12	14.4 mm
CC(=O)N1CCN(Cc2cn(CCCCCCOc3ccc4c(C)cc(=O)oc4c3)nn2)CC1	12.9 mm
Cc1cc(=O)oc2cc(OCCCCCCn3cc(CN4CCN(Cc5ccc6c(c5)OCO6)CC4)nn3)ccc12	15 mm
Cc1cc(=O)oc2cc(OCCCCn3cc(CN4C(=O)c5ccccc5C4=O)nn3)ccc12	13.8 mm
